# Experimental data reported in ChEMBL document CHEMBL1143442, “Inhibitors of the tyrosine kinase EphB4. Part 2: structure-based discovery and optimisation of 3,5-bis substituted anilinopyrimidines” (Bioorg Med Chem Lett, 2008).
# Key:
# Ephrin type-B receptor 4 [1] = biological target: T1, Ephrin type-B receptor 4 (Homo sapiens, UniProt P54760); test: Inhibition of Myc-His-tagged EphB4 expressed in CHOK1 cells assessed as phosphorylation by ELISA; type: cell-based, CHO-K1
# T1 sequence (P54760 whole entry): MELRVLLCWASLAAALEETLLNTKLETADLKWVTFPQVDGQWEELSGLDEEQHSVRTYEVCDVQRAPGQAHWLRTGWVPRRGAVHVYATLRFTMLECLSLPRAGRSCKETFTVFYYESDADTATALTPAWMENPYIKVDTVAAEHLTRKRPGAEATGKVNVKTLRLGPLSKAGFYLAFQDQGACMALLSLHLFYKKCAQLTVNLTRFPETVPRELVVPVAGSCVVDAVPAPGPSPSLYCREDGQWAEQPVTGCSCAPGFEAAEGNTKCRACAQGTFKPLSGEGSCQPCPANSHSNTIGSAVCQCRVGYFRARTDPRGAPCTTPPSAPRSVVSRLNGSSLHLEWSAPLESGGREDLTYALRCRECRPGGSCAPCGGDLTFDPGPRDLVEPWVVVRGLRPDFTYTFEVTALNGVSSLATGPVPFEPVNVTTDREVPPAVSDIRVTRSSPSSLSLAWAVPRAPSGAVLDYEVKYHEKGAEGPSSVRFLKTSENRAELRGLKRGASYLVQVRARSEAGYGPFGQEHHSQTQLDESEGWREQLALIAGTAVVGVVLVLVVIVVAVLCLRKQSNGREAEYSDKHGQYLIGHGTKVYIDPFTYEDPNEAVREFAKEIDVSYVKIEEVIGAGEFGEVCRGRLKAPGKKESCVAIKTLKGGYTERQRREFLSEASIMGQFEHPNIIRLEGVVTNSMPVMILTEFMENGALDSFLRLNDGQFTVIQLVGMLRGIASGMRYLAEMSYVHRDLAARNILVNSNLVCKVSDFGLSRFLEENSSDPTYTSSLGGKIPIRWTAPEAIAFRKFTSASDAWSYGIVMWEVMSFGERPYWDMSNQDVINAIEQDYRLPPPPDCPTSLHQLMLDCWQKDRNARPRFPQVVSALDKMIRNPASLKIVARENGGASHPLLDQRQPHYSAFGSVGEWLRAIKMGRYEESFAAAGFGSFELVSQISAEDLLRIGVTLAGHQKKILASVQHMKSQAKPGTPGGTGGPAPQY
# Ephrin type-B receptor 4 [2] = biological target: T1, Ephrin type-B receptor 4; test: Inhibition of EphB4
SMILES,IC50 (Ephrin type-B receptor 4 [1]),IC50 (Ephrin type-B receptor 4 [2])
NC(=O)c1cccc(Nc2nccc(Nc3c(Cl)ccc4c3OCO4)n2)c1,900 nM,–
CS(=O)(=O)c1cc(Nc2nccc(Nc3c(Cl)ccc4c3OCO4)n2)cc(C(N)=O)c1,22200 nM,23 nM
NC(=O)c1cc(Nc2nccc(Nc3c(Cl)ccc4c3OCO4)n2)cc(N2CCOCC2)c1,887 nM,13 nM
CS(=O)(=O)Nc1cc(Nc2nccc(Nc3c(Cl)ccc4c3OCO4)n2)cc(NS(C)(=O)=O)c1,7170 nM,15 nM
CS(=O)(=O)Nc1cc(Nc2nccc(Nc3c(Cl)ccc4c3OCO4)n2)cc(N2CCOCC2)c1,170 nM,2 nM
CS(=O)(=O)c1cc(Nc2nccc(Nc3c(Cl)ccc4c3OCO4)n2)cc(N2CCOCC2)c1,32 nM,2 nM
CS(=O)(=O)Nc1cc(Nc2nccc(Nc3c(Cl)ccc4c3OCO4)n2)cc(S(N)(=O)=O)c1,14100 nM,1 nM
CS(=O)(=O)Nc1cc(Nc2nccc(Nc3c(Cl)ccc4c3OCO4)n2)cc(S(C)(=O)=O)c1,2050 nM,12 nM
NS(=O)(=O)c1cccc(Nc2nccc(Nc3c(Cl)ccc4c3OCO4)n2)c1,172 nM,–
CS(=O)(=O)c1cc(Nc2nccc(Nc3c(Cl)ccc4c3OCO4)n2)cc(S(C)(=O)=O)c1,209 nM,114 nM
NC(=O)c1cc(Nc2nccc(Nc3c(Cl)ccc4c3OCO4)n2)cc(C(N)=O)c1,> 30000 nM,77 nM
CS(=O)(=O)Nc1cc(Nc2nccc(Nc3c(Cl)ccc4c3OCO4)n2)cc(C(N)=O)c1,> 30000 nM,370 nM
